Reference: patent US20250152734A1, “USES AND FORMULATIONS OF CAMPTOTHECIN (CPT)-CONTAINING NANOPARTICLES” (DANTARI, INC., priority 2022, published 2025)

Experiment: Tolerability of CPT in 3-week mouse xenograft studies (ER2019-09-1B, ER2019-09-1C)
Assay type: in vivo
Experimental: This value is determined from the calculated free and total CPT concentrations in the sample. The “% free of total CPT” value provides the clearest indicator of drug substance stability during storage and use. […] The release specification for % free of total CPT in the drug substance is ≤3%. The stability specification for % free of total CPT in the drug substance is ≤5%. These limits are well below prior studies using CPT administered directly as a free drug. In two separate 3-week mouse xenograft studies (ER2019-09-1B, ER2019-09-1C) CPT itself was dosed and well-tolerated at 3 mg/kg which has a human equivalent dose of 9 mg CPT/m2.

In the case of `CC[C@@]1(O)C(=O)OCc2c1cc1n(c2=O)Cc2cc3ccccc3nc2-1` [CPT, 20 (S)-camptothecin], the well-tolerated dose (3-week mouse xenograft studies) is reported as 3 mg/kg and the “human equivalent dose of tolerated dose” value (mouse, in vivo) is reported as 9 mg CPT/m2.
